Test results from patent US20130317092A1 (priority 2007, published 2013).
Entries after “also recorded” stand apart in the source; their conditions may differ.

What was measured:
[1] = tested on: macrophage miRNAs; assay: Spotted microarray miRNA profile of primary human macrophages; format: cell-based
Source text: Macrophages were isolated from buffy coats from healthy donors, underwent pooling that elicited mixed leukocyte response (MLR) and subjected in vitro to several distinct agents or combinations thereof, some known to elicit macrophage activation (listed in Table 2, hereinbelow).
The mirVana (Ambion, Austin, Tex.) oligonucleotide set was used to construct the in-house array. The microarray carried 200 spotted probes complementary to known human and mouse miRNAs. To compose the array, the mirVana probeset was dissolved in 3×SSC to a final concentration of […], and printed on Ultragaps slides (Corning, Corning, N.Y.), using the MicroGrid spotter (Genomic Solutions, Holliston, Mass.). The array layout contained 12 subgrids, each composed of 11 rows and 12 columns. Each oligonucleotide was spotted 6 times on the array. The experiments were designed for comparison of two samples. Data was therefore always relative rather than absolute. In these experiments, a “reference design” (Churchill, 2002, Nature genetics, 32, 490-495) was used, in which RNA from cells or tissues is compared. In addition, dye-swapping tests were performed, aimed to exclude dye-specific labeling differences (Dombkowski et al., 2004, FEBS Lett, 560, 120-124). Labeling was performed using the CyDye reactive dye pack (Amersham, NSW, Australia), as instructed. Pre-hybridization was in pre-heated S×SSC, 1% BSA, 0.1% SDS solution, at 42° C. for 45 min. Cy3 and Cy5-labeled fragmented RNA (3 ug each) were added to the hybridization solution (3×SSC, 0.1% SDS, 10 μg polyA, 20 μg tRNA), heated at 95° C. for 4 minutes for eliminating secondary structures and applied to the slides in hybridization chambers (Corning, N.Y., USA) for 15 h at 64° C. Hybridized slides were successively washed in: 1×SSC, 0.1% SDS (5 min); 0.1×SSC, 0.1% SDS (5 min) and 0.1×SSC (3×1.5 min) and were dried by centrifugation (˜1000 g).
This was adapted from (Ben-Ari S, et al., J. Neurochem. 2006 April; 97 Suppl 1:24-34.) Briefly, an Affymetrix 428 Array Scanner was used at the maximum gain setting, at the wavelengths of 532 nm and 650 nm Scans were controlled by the “Jaguar” software (Affymetrix, Calif., USA), saved as TIFF files and exported to the “Imagene” program (Biodiscovery Inc, CA, USA) to define the spots, convert the intensity signals into numbers and calculate quality parameters such as “shape regularity”, “empty spot” etc. Data normalization, exclusion of unreliable spots and combining the information from all 4 slides were performed in an in-house Matlab program. First, median background was subtracted from the median signal intensity, to normalize background noises. Background area was defined as a circle of 5 pixels diameter separated from the signal area by 4 pixels. […]. Spot quality was examined according to pre-defined Imagene's parameters, standard deviation of pixels intensity in each spot etc. Spots with intensities below the threshold derived from the negative control spots or with saturated pixel values were excluded. The Cy3 and Cy5 signal intensities of each spot were normalized to the mean Cy3 and Cy5 intensities in the slide. For each spot, an initial Cy3/Cy5 ratio has been calculated, and was transformed to a log 2 basis. This value was designated LR (log 2 ratio). […]. Then, results from all valid spots (up to 6) representing the same oligonucleotide were combined. Probes with less than 3 valid spots were excluded, and median and mean LR were calculated.
Covariance between treatments was calculated in OpenOffice 1.1 for Mac OS X, using the entire miRNA collection represented on the chip (for signals that failed the MatLab analysis, a Median LR value of 0 was assigned).
The mirVana oligo set (Ambion, Austin, Tex.; Catalog number 1564V1) was used to construct our in-house array with >200 spotted probes complementary to known human and mouse miRs. […]

[2] = tested on: BDP1; assay: BDP1 transcript in human PBMC (real-time RT-PCR); format: cell-based
[3] = tested on: CD54 and CD40; conditions: cited from earlier work
[4] = tested on: AChmiRNA; assay: AChmiRNA expression in human PBMC (quantitative RT-PCR); format: cell-based
[5] = tested on: TBP; assay: TBP transcript in human PBMC (real-time RT-PCR); format: cell-based
[6] = tested on: ASF/SF2; assay: Splicing factor ASF/SF2 in human PBMC (real-time RT-PCR); format: cell-based
[7] = tested on: Meg-01 cells; assay: DNA fragmentation by TUNEL assay in Meg-01 cells; format: cell-based, human
[8] = tested on: c-Myc; assay: c-Myc immunohistochemistry in Meg-01 cells; format: cell-based, human
[9] = tested on: Murine macrophage RAW 264.7 cells; assay: Nitric oxide production (nitrite, Griess) by RAW 264.7 macrophages; format: cell-based
Experimental: Murine macrophage RAW 264.7 cells were cultured in 48 well plates (50×10^3 cells per well). The production of NO by these macrophages was examined following various stimuli (6 repetitions for each treatment) at three time intervals (6, 12 and 24 hours) as depicted in FIGS. 27a, 27b and 27c.
Mouse RAW cells, human U937 cells and primary human macrophages were treated for 24 h with 1 μM CpG oligonucleotides or 1 μg/ml bacterial lipopolysaccharide added to standard growth medium
Interleukin 6 expression was assayed by QRT-PCR, nitric oxide was measured by Griess assay and prostaglandin E2 levels were measured by R&D ELISA kit according to manufacturer's instructions.

[10] = tested on: AChE-S mRNA; assay: AChE-S mRNA level (fluorescent in situ hybridization) in Meg-01 cells; format: cell-based, human; conditions: for AChE-S mRNA level on co-administration with Thapsi: Thapsi 10 nM plus oligo 100 nM; for AChE-S mRNA level by FISH: agent alone
[11] = tested on: Meg-01 cells; assay: Adhesion assay of MEG-01 cells; format: cell-based, human; conditions: 72 hours
[12] = tested on: AChE-R mRNA; assay: AChE-R mRNA level (RT-PCR, fluorescent in situ hybridization) in Meg-01 cells; format: cell-based, human; conditions: for AChE-R mRNA level on co-administration with Thapsi: Thapsi 10 nM plus oligo 100 nM; for AChE-R mRNA level by FISH (population distribution): agent alone
[13] = tested on: ASF/SF2; assay: Splice factor ASF/SF2 in Meg-01 cells; format: cell-based, human; conditions: data not shown
[14] = tested on: miRNA181a; assay: Northern blot of miRNA181a in Meg-01 cells; format: cell-based, human; conditions: in the presence or absence of Thapsi and/or AChmiON
Experimental: Cultured Meg-01 cells were co-incubated with thapsigargin (10 nM) and synthetic AChmiON (miR-181) (SEQ ID NO:23; at 100 nM) or anti-miR-181 (SEQ ID NO:24 (modified, identical in sequence to SEQ ID NO:2); at 100 nM.

[15] = tested on: AChmiRNA; set-up: species or system mice; conditions: mouse
[16] = tested on: AChE; assay: AChE catalytic activity (Ellman) in RAW 264.7 cells; format: cell-based, murine
[17] = tested on: activated caspase-3; assay: Activated caspase-3 immunostaining in Meg-01 cells; format: cell-based, human; conditions: 24 hours, agent alone
[18] = tested on: AChE-S; assay: AChE-S protein immunocytochemistry in Meg-01 cells; format: cell-based, human; conditions: 24 hours
[19] = tested on: Meg-01 cells; assay: Ploidy / DNA content of Meg-01 cells by FACS and propidium iodide; format: cell-based, human; conditions: 72 hours
[20] = tested on: Bcl-2; assay: Bcl-2 immunostaining in Meg-01 cells; format: cell-based, human
[21] = tested on: PKCβII; assay: PKCβII immunocytochemistry in Meg-01 cells; format: cell-based, human; conditions: 24 hours
[22] = tested on: AChE-R; assay: AChE-R protein immunocytochemistry in Meg-01 cells; format: cell-based, human; conditions: 24 hours
[23] = tested on: activated caspase-9; assay: Activated caspase-9 immunostaining in Meg-01 cells; format: cell-based, human
[24] = tested on: AChmiRNA (miRNA-181a); assay: AChmiRNA (miRNA-181a) level by real-time RT-PCR in Meg-01 cells; format: cell-based, human
[25] = tested on: Meg-01 cells; assay: Nuclear area measurement of Meg-01 cells; format: cell-based, human; conditions: 24 hours
[26] = tested on: Meg-01 cells; assay: Scanning electron microscopy of Meg-01 cell surface (megakaryocytic maturation); format: cell-based, human; conditions: 24 hour treatment

CpG ODN 2006
similarity of effects on the miRNA profile (covariance) [1]: invoke the closest effects on the miRNA profile | miR-132 expression (spotted microarray) ([1]; 24 h, 1 μg/ml LPS or ODN 2006 1 uM): consistently being up-regulated | extent of change in miRNA expression (miRNAs beyond median LR=0.25) ([1]; LPS 1 μg/ml, CpG 1 μM, EN101 1 μM): caused the greatest change | miR-17-5p expression ([1]; spotted array): down-regulated by CpG alone | miR-30a-3p and miR-372 expression ([1]; spotted array): consistently down-regulated | miRNAs down-regulated ([1]; spotted array): miR-9-1*, 26a-1, 27a, 33, 93, 140, 145, 185, 221, and 298 | miRNAs up-regulated ([1]; spotted array): miR-183, 292-3p, 302c, 361, and 381 | BDP1 transcript [2]: suppressed | expression of CD54 and CD40 [3]: enhanced expression of CD54 and CD40 | AChmiRNA expression [4]: suppressed | TBP transcript [5]: suppressed | splicing factor ASF/SF2 levels [6]: reduced levels

AChmiON: fully 2′-O-methylated oligonucleotide with the sequence of human/murine miRNA-181a (modified SEQ ID NO:23; unmodified SEQ ID NO:1) (AACAUUCAACGCUGUCGGUGAGU; all 2'-O-methyl, backbone not given here)
DNA fragmentation / cell death (TUNEL) [7]: increased incidence of positive cells; also recorded: significantly increased apoptosis | Thapsi-induced c-myc increase on co-treatment ([8]; Thapsi plus AChmiON): could not prevent the c-myc increase induced by Thapsi | speed of the NO response ([9]; RAW 264.7, 6, 12 and 24 hours): slower than the response to LPS or IFN-γ | maximal NO effect relative to the LPS effect ([9]; RAW 264.7, 24 hour post-treatment, AChmiON 100 nM): about 80% | Nitrite concentration reflecting NO production ([9]; RAW 264.7, 24 hours, LPS 1 μg/ml, IFN-γ 4 ng/ml, oligos 100 nM): 38 µM | NO production versus control (in words) ([9]; RAW 264.7 macrophages): significantly up-regulated NO production | AChE-S mRNA level on co-administration with Thapsi [10]: keeping AChE-S mRNA level above control values | AChE-S mRNA level by FISH [10]: increased the fraction of cells with high AChE-S levels | cell adhesion [11]: suppressed this effect | AChE-R mRNA level on co-administration with Thapsi [12]: inhibiting the increase in AChE-R mRNA level | AChE-R mRNA level by FISH (population distribution) [12]: levels remained unchanged | Thapsi-induced ASF/SF2 on co-treatment ([13]; Thapsi plus AChmiON): suppressed part of this effect

anti-AChmiRNA: antisense oligonucleotide complementary to AChmiRNA (SEQ ID NO:2; modified SEQ ID NO:24) (ACUCACCGACAGCGUUGAAUGUU; modified, pattern not given here)
DNA fragmentation / cell death (TUNEL) [7]: normal level of TUNEL staining | level of AChmiRNA (miRNA181a) by Northern blot [14]: decreased the level of anti-AChmiRNA | level of AChmiRNA (miRNA181a) by Northern blot ([14]; listed as anti-miR181): reducing the level of miRNA181a in the presence or absence of Thapsi and/or AChmiON | AChE-S mRNA level on co-administration with Thapsi [10]: prevented the Thapsigargin-induced suppression of AChE-S mRNA | AChE-R mRNA level on co-administration with Thapsi [12]: maintaining the increase in AChE-R mRNA

CN1CC=C(c2ccccc2)CC1 [MPTP, 1-Methyl-4-phenyl-1,2,3,6-tetrahydropyridine]
AChmiRNA levels in vivo [15]: decreases of AChmiRNA levels

C=CC[N+](C)(C)c1ccc(CCC(=O)CCc2ccc([N+](C)(C)CC=C)cc2)cc1.[Br-].[Br-] [BW284c51, 1,5-Bis(4-allyldimethylammoniumphenyl)pentan-3-one dibromide]
AChE activity ([16]; RAW 264.7 cells, 24 hr, LPS 1 μg/ml, BW 284 C51 10 μM (Example 13)): reduced AChE activity | AChE activity ([16]; macrophages (RAW 264.7), 1 micromolar BW284c51, 100 nanomolar CpG 1826): decrease

C/C=C(/C)C(=O)O[C@H]1C(C)=C2[C@H]([C@@H]1OC(=O)CCCCCCC)[C@@](C)(OC(C)=O)C[C@H](OC(=O)CCC)[C@@]1(O)[C@H]2OC(=O)[C@@]1(C)O [Thapsi, Thapsigargin]
incidence of activated caspase-3 positive cells [17]: increase in the incidence of activated caspase-3 positive cells | DNA fragmentation / cell death (TUNEL) [7]: no significant changes | expression of the AChE-S variant (immunohistochemistry) [18]: decrease of expression of the AChE-S variant | c-myc expression ([8]; agent alone): c-myc increase induced by Thapsi | ploidy (DNA content) [19]: a bigger fraction of cells became polyploid | immunoreactivity of Bcl-2 [20]: decrease in the immunoreactivity of Bcl-2 | staining intensity for PKCβ [21]: increased staining intensity for PKCβ | AChE-R protein level (immunohistochemistry) [22]: increase also in the protein level | incidence of activated caspase-9 positive cells [23]: increased the incidence of positive cells for activated caspase-9 immunostaining | level of AChmiRNA ([24]; Meg-01 cells treated for 24 hours, agent alone): induced a decrease in AChmiRNA | decrease in the levels of AChmiRNA ([24]; Meg-01 cells, Thapsi treatment (ER-calcium release), real-time RT-PCR): 50% | nuclear area / nuclei size [25]: increase in the nuclear area | AChE-S mRNA level by FISH [10]: decrease in AChE-S mRNA level | cell adhesion [11]: increased adhesion of treated cells | AChE-R mRNA level (RT-PCR) ([12]; 24 hours): increasing the levels of AChE-R mRNA variant | AChE-R mRNA level by FISH (population distribution) [12]: rightward shift in the population distribution of labeling intensity; also recorded: increase in AChE-R mRNA level | cell surface morphology (scanning electron microscopy) [26]: a very early stage in the formation of demarcation membranes | splice factor ASF/SF2 [13]: induced
